The values that follow come from ChEMBL document CHEMBL3044580, “Insecticide selectivity and behavioral response of the earwig Doru luteipes” (2011).

≈ marks a conversion by molar mass, not a printed value. Calls of active or inactive are those of the source. The rule behind the calls is not given here.

The test system of assay [1] is Doru. Description: Insecticidal activity against adult Doru luteipes earwig ) in compound treated maize leaf assessed as higher resting time in half-treated arenas measured during 10 min compound exposure by behavioral locomotory bioassay. The class given is functional, organism-based.
Assay [2] relates to Spodoptera frugiperda. Description: Relative toxicity in second instar Spodoptera frugiperda (fall armyworm) in compound treated maize leaf assessed as mortality measured by Time-mortality bioassay. The class given is functional.
Assay [3] concerns Spodoptera frugiperda. Description: Insecticidal activity in second instar Spodoptera frugiperda (fall armyworm) in compound treated maize leaf assessed as mortality measured after 48 hr by concentration-mortality bioassay. The class given is functional.
For assay [4], the system named is Doru. Description: Insecticidal activity against adult Doru luteipes (earwigs) in compound treated maize leaf assessed as mortality measured after 48 hr by concentration-mortality bioassay. The class given is functional.
Assay [5] concerns Spodoptera frugiperda. Description: Relative toxicity in second instar Spodoptera frugiperda (fall armyworm) in compound treated maize leaf assessed as mortality measured after 48 hr by concentration-mortality bioassay. The class given is functional.
In assay [6] the test system is Doru. Description: Insecticidal activity against adult Doru luteipes (earwigs) in compound treated maize leaf assessed as mortality measured by time-mortality bioassay. The class given is functional.
Assay [7] deals with Doru. Description: Insecticidal activity against adult Doru luteipes (earwigs) in compound treated maize leaf assessed as reduction in distance walked in fully-treated arenas measured during 10 min compound exposure by behavioral locomotory bioassay. The class given is functional, organism-based.
Assay [8] concerns Doru. Description: Insecticidal activity against adult Doru luteipes earwigs) in compound treated maize leaf assessed as higher in number of stops in half-treated arenas measured during 10 min compound exposure by behavioral locomotory bioassay. The class given is functional, organism-based.
A short description of assay [9]: Selectivity ratio of LC50 for adult earwig species Doru luteipes to LC50 for second instar fall armyworm Spodoptera frugiperda by concentration-mortality bioassay. The class given is functional.
The test system of assay [10] is Doru. Description: Relative toxicity in adult Doru luteipes (earwigs) in compound treated maize leaf assessed as mortality measured by time-mortality bioassay. The class given is functional.
Assay [11] concerns Doru. Description: Relative toxicity in adult Doru luteipes (earwigs) in compound treated maize leaf assessed as mortality measured after 48 hr by concentration-mortality bioassay. The class given is functional.
Assay [12] deals with Doru. Description: Insecticidal activity against adult Doru luteipes (earwigs) in compound treated maize leaf assessed as reduction in walking velocity in fully-treated arenas measured during 10 min compound exposure by behavioral locomotory bioassay. The class given is functional, organism-based.
Assay [13] concerns Spodoptera frugiperda. Description: Insecticidal activity in second instar Spodoptera frugiperda (fall armyworm) in compound treated maize leaf assessed as mortality measured by Time-mortality bioassay. The class given is functional.
Assay [14] has as its system Doru. Description: Insecticidal activity against adult Doru luteipes (earwigs) in compound treated maize leaf assessed as insect avoidance by behavioral bioassay. The class given is functional, organism-based.

As a reminder, the LC50 is the concentration that kills 50% of the test population.

As to `CC[C@H]1CCC[C@H](O[C@H]2CC[C@H](N(C)C)[C@@H](C)O2)[C@@H](C)C(=O)C2=C[C@@H]3[C@@H](C=C(C)[C@@H]4C[C@@H](O[C@@H]5O[C@@H](C)[C@H](OC)[C@@H](OC)[C@H]5OC)C[C@@H]34)[C@@H]2CC(=O)O1.CC[C@H]1CCC[C@H](O[C@H]2CC[C@H](N(C)C)[C@@H](C)O2)[C@@H](C)C(=O)C2=C[C@@H]3[C@@H](C=C[C@@H]4C[C@@H](O[C@@H]5O[C@@H](C)[C@H](OC)[C@@H](OC)[C@H]5OC)C[C@@H]34)[C@@H]2CC(=O)O1`, the inhibition entry in the assay on Doru [1], in the assay with Doru [7], in the assay with Doru [8] and in the assay with Doru [12] was “Active” throughout. Besides, the Ratio in the assay on Spodoptera frugiperda [2] is reported as 2.77; with Spodoptera frugiperda [5], 99.47; in the assay on Doru [10], 6.61; with Doru [11], 3528. Moreover, the LC50 with Spodoptera frugiperda [3] amounted to 0.04 µg/mL; in the assay on Doru [4] it was 215 µg/mL. Moreover, the LT50 came to 11.43 h in the assay with Doru [6] and 47.17 min in the assay with Spodoptera frugiperda [13]. For the same compound, the RatioLC50 in assay [9] amounted to 3530.
As to `CC1(C)[C@H](/C=C(\Cl)C(F)(F)F)[C@@H]1C(=O)O[C@@H](C#N)c1cccc(Oc2ccccc2)c1` (relative stereo) [REL-LAMBDA CYHALOTHRIN], the Ratio in the assay with Spodoptera frugiperda [2] is on record as 1.47; in the assay with Spodoptera frugiperda [5], 6; in the assay on Doru [10] it was 1.23; with Doru [11], 45000. The LC50 in the assay with Spodoptera frugiperda [3] worked out at 0.7 µg/mL (≈ 1.56 µM); with Doru [4] it was 16.6 µg/mL (≈ 36.9 µM). Further, the LT50 with Doru [6] was determined as 2.12 h; with Spodoptera frugiperda [13] it was 25.03 min. Further, the RatioLC50 in [9] is 23.7.
With `CNC(=O)c1cc(Cl)cc(C)c1NC(=O)c1cc(Br)nn1-c1ncccc1Cl` [CHLORANTRANILIPROLE], the Ratio is listed as 4.97 in the assay with Spodoptera frugiperda [2], 5.46 in the assay with Spodoptera frugiperda [5] and 1 in the assay with Doru [11]. Also, in the assay on Spodoptera frugiperda [3], the LC50 came to 0.77 µg/mL (≈ 1.59 µM). Further, the RatioLC50 in assay [9] stood at 980000. For the same compound, the LT50 in the assay with Spodoptera frugiperda [13] was 84.61 min.
`CCOCn1c(-c2ccc(Cl)cc2)c(C#N)c(Br)c1C(F)(F)F` [CHLORFENAPYR]: the Ratio in the assay on Spodoptera frugiperda [2] worked out at 6.83; with Spodoptera frugiperda [5], 1.78; in the assay on Doru [10] it was 12.48; in the assay with Doru [11] it was 14000. For the same compound, the LC50 was determined as 2.37 µg/mL (≈ 5.81 µM) with Spodoptera frugiperda [3] and 53.3 µg/mL (≈ 131 µM) with Doru [4]. For the same compound, the LT50 in the assay on Doru [6] was 21.58 h; in the assay with Spodoptera frugiperda [13], 116.34 min. Moreover, in assay [9], the RatioLC50 stood at 22.5. Moreover, in the assay on Doru [14], the inhibition entry was “Active”.
As for `CCOP(=S)(OCC)Oc1nc(Cl)c(Cl)cc1Cl` [CHLORPYRIFOS], the Ratio with Spodoptera frugiperda [2] came to 1.26; in the assay with Spodoptera frugiperda [5], 3.57; in the assay with Doru [10] it was 1; with Doru [11], 550000. For the same compound, the LC50 in the assay on Spodoptera frugiperda [3] amounted to 1.18 µg/mL (≈ 3.37 µM); in the assay on Doru [4], 1.4 µg/mL (≈ 3.99 µM). Also, the LT50 is 1.73 h in the assay with Doru [6] and 21.52 min with Spodoptera frugiperda [13]. The RatioLC50 in [9] is 1.2. Moreover, the inhibition entry with Doru [14] is “Active”.
As for `CC1(C)[C@H](C(=O)O[C@H](C#N)c2cccc(Oc3ccccc3)c2)[C@@H]1C=C(Br)Br` [DELTAMETHRIN], the Ratio in the assay on Spodoptera frugiperda [2] is given as 2.63; in the assay on Spodoptera frugiperda [5], 23.2; with Doru [11], 33000. For the same compound, the LC50 in the assay on Spodoptera frugiperda [3] came out at 0.18 µg/mL (≈ 0.356 µM); with Doru [4] it was 22.6 µg/mL (≈ 44.7 µM). Further, in [9], the RatioLC50 came to 152. For the same compound, the LT50 with Spodoptera frugiperda [13] came out at 44.84 min.
In the case of `CCOc1ccc(C(C)(C)COCc2cccc(Oc3ccccc3)c2)cc1` [ETOFENPROX], the Ratio with Spodoptera frugiperda [2] stood at 1; in the assay with Spodoptera frugiperda [5] it was 1.25; with Doru [11], 1133.5. The LC50 in the assay with Spodoptera frugiperda [3] worked out at 3.37 µg/mL (≈ 8.95 µM); with Doru [4] it was 668 µg/mL (≈ 1770 µM). In assay [9], the RatioLC50 was 198. The inhibition result with Doru [14] was “Active”. Further, the LT50 in the assay with Spodoptera frugiperda [13] came out at 17.03 min.
Regarding `CNC(=O)ON=C(C)SC` [METHOMYL], the Ratio in the assay with Spodoptera frugiperda [2] came to 1.71; with Spodoptera frugiperda [5] it was 1; in the assay on Doru [11] it was 348. Moreover, the figures for the LC50 in the assay on Spodoptera frugiperda [3] and with Doru [4] were 4.21 µg/mL (≈ 26 µM) and 2180 µg/mL (≈ 13400 µM), respectively. The RatioLC50 in assay [9] is 517. For the same compound, the LT50 with Spodoptera frugiperda [13] turned out to be 29.18 min.
